Results as given in PubChem BioAssay (NCI).
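A five-concentration, 48-hour dose response in 96-well plates underlies each endpoint, interpolated linearly between surrounding concentrations. TGI is the concentration that stops growth completely.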 *1 amine or outer side, *2 acyl side, *3 side chain or, on linkers, in order; H or OH if unused. Where a SMILES comes first, the peptide text is derived from it. Bridges are numbered along the chain shown (N, C = ends). Roman numbers before positions name the chains, in order. [ ]: non-standard residue; d: D form. Actinocin(9to1) = Cc1c2oc3c(C)ccc(C(=O)[*:1])c3nc-2c(C(=O)[*:2])c(N)c1=O; NMeV = CN[CH](C(=O)O)C(C)C; Sar = CNCC(=O)O

Key:
Assay in all cases: NCI tumour cell line growth inhibition, 48 h
[1] = tested on: IGROV1 ovarian
[2] = tested on: TK-10 renal
[3] = tested on: HS 578T breast
[4] = tested on: COLO 205 colon
[5] = tested on: MALME-3M melanoma
[6] = tested on: MCF7 breast
[7] = tested on: NCI-H226 lung
[8] = tested on: NCI-H460 lung
[9] = tested on: SK-MEL-28 melanoma
[10] = tested on: A498 renal

Row | SMILES | TGI [1] [µM] | TGI [2] [µM] | TGI [3] [µM] | TGI [4] [µM] | TGI [5] [µM] | TGI [6] [µM] | TGI [7] [µM] | TGI [8] [µM] | TGI [9] [µM] | TGI [10] [µM]
1 | NC(=O)CC[C@H]1C(=O)N=C(N)N1C(=O)OCc1ccccc1 | > 100 | > 100 | > 100 | > 100 | > 100 | > 100 | > 100 | > 100 | > 100 | > 100
2 | CC(C)CCCC(C)[C@H]1CC[C@H]2NCCCC[C@]12C (stereo not given in full) | 19.8 | 11.9 | 15.8 | 3.14 | 16.4 | 4.37 | 29 | 4.25 | 5.57 | 26.6
3 | CCOC(=O)c1nc2ccccc2nc1Nc1ccc(F)cc1 | 44.8 | > 100 | > 84.8 | > 100 | > 100 | > 100 | > 63.7 | > 100 | > 100 | 58.5
4 | C=C1CC(Cn2cc(Br)c(=O)[nH]c2=O)(c2ccc(Br)cc2)OC1=O (stereo not given) | 4.06 | 23 | > 32.4 | 3.18 | 4.7 | 14.4 | 36.6 | 35.6 | 16.7 | 10.2
5 | CCCCCCCCCCC[N+]1(Cc2ccccc2)CC2CCN(Cc3ccccc3)CC2C1 (stereo not given) | 1.78 | 2.57 | 1.57 | 2.18 | 1.26 | 1.62 | 1.98 | 2.58 | 1.95 | 2.88
6 | CCOc1ccccc1N=NC1C(=O)N(C(=O)CC(=O)Nc2ccccc2OC)N=C1C (stereo not given) | > 100 | > 100 | 12.2 | > 100 | > 100 | > 100 | > 100 | > 100 | > 100 | > 100
7 | Cn1c(=O)[nH]n(-c2ccc3ccccc3c2)c1=O | > 100 | > 100 | > 100 | > 100 | > 100 | > 100 | > 100 | > 100 | > 100 | > 100
8 | O=C1/C(=C(/Br)I)c2ccccc2-c2ccccc21 | 27.7 | 21.3 | > 100 | 4.22 | 11.5 | 32.9 | 35.4 | 41.2 | 42.8 | 30.2
9 | Cc1c2oc3c(C)ccc(C(=O)NC4C(=O)NC(Cc5ccc(O)cc5)C(=O)N5CCCC5C(=O)N(C)CC(=O)N(C)C(C(C)C)C(=O)OC4C)c3nc-2c(C(=O)NC2C(=O)NC(Cc3ccc(O)cc3)C(=O)N3CCCC3C(=O)N(C)CC(=O)N(C)C(C(C)C)C(=O)OC2C)c(N)c1=O (stereo not given) (I: TYP[Sar][NMeV] / II: TYP[Sar][NMeV]; ester I:1-I:C, II:1-II:C; linker I:N-II:N via Actinocin(9to1); configuration not given here) | 32.6 | > 80.3 | 67.3 | > 100 | 44.3 | 14.6 | > 100 | > 100 | > 87 | 56.1
10 | O=C1/C(=C/C=C/c2ccccc2)CCC1CNc1ccc(Br)cc1 (stereo not given) | > 100 | > 100 | > 100 | 48.6 | 0.246 | > 100 | > 100 | > 100 | > 100 | > 100
11 | COCCN(C(=O)c1ccccc1)C1CCC(=O)c2[nH]c3ccccc3c21 (stereo not given) | 13.6 | 35.5 | > 75.5 | 31.5 | 17.7 | 19.2 | 20.6 | 34.9 | 16 | 33.4
12 | CC(=O)NC1C(OCc2ccccc2)OC(CO)C(O)C1OCC(=O)N[C@@H](C)C(=O)N[C@H](CCC(=O)NCCCCNc1c2ccccc2nc2cccc([N+](=O)[O-])c12)C(N)=O (stereo not given in full) | 4.74 | 16.7 | > 31.3 | 3.33 | 3.68 | 32 | 7.49 | 3.36 | 23.4 | 5.9
